Patent US20230399373A1, “MOLECULAR DESIGNS OF GLUCOSE-RESPONSIVE AND GLUCOSE-CLEAVABLE INSULIN ANALOGUES” (THE TRUSTEES OF INDIANA UNIVERSITY, priority 2020, published 2023)

How the values were obtained:
Type in all cases: cell-based
IR [1] = test: Western blot assays of fructose-dependent insulin signaling (IR autophosphorylation, p-AKT/AKT, p-FOXO1/FOXO1, p-GSK-3/GSK-3) in HepG2 cells; conditions: single hormone dose 50 nM
Experimental: Signal propagation was probed via a cytoplasmic kinase cascade and changes in metabolic gene expression in HepG2 cells. […] An overview of IR autophosphorylation (probed by anti-pTyr IR antibodies) and downstream phosphorylation of Ser-Thr protein kinase AKT (protein kinase B; ratio p-AKT/AKT), forkhead transcription factor 1 (p-FOXO1/FOXO1), and glycogen synthase kinase-3 (p-GSK-3/GSK-3) at a single hormone dose (50 nM) was provided by Western blot (WB; FIG. 4 D-F). […] The activity of FRI in the absence of fructose is low.

IR [2] = test: 96-well plate assay of dose-dependent and ligand-selective IR autophosphorylation
Experimental: Quantitative dose-dependent and ligand-selective IR autophosphorylation were evaluated in a 96-well plate assay (FIG. 5A). FRI triggered a robust signal on addition of 50 mM fructose whereas baseline activity in the absence of fructose was low.

HepG2 cells = test: PCR assays of ligand-selective metabolic gene regulation (PEPCK, ChREBP, SREBP) in HepG2 cells; conditions: control studies
Experimental: Insulin-signaling in hepatocytes extends to metabolic transcriptional regulation as recapitulated in HepG2 cells. […] Control studies were undertaken in the absence of insulin analogs to assess potential confounding changes in metabolic gene expression on addition of 0 to 100 mM fructose or 0 to 100 mM glucose.

## insulin lispro [KP]
IR [1]
  signaling by Western blot (IR autophosphorylation, p-AKT/AKT, p-FOXO1/FOXO1, p-GSK-3/GSK-3): dependence on fructose: fructose-independent signaling
IR [2]; 50 mM fructose
  IR autophosphorylation signal on addition of 50 mM fructose: high signaling activity
IR [2]; 50 mM glucose
  effect of addition of 50 mM glucose on IR autophosphorylation activity: did not influence
IR [2]; no fructose
  IR autophosphorylation baseline activity in the absence of fructose: high signaling activity
HepG2 cells
  fructose dependence of metabolic gene regulation: No fructose dependence
